These results are taken from US10975056B2 (GlaxoSmithKline Intellectual Property Development Limited, priority 2016, dated 2021).

One experiment concerns the target DNMT1 (Homo sapiens, UniProt P26358). Put plainly: DNMT1 biochemical activity, breaklight assay and/or SPA assay. As to conditions: for DNMT1 BioChemical (pIC50 category) / IC50: binned activity in either the breaklight or the SPA assay; for IC50: read-out: DNMT1 BioChemical (pIC50 category) (converted).
The subject of experiment [1] is erythroid progenitor cells (EPCs). The experiment is described as follows: Fetal hemoglobin (HbF) ELISA in day 7 erythroid progenitor cells.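 Note: for fetal hemoglobin induction normalized to vehicle-treated cells.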 The class given is cell-based, human. As to conditions: Homo sapiens, Erythroid progenitor cell, HbF ELISA, day 7 EPCs, 5 days; read-out: EPC ELISA (pEC50 category) (converted). In short, it runs like this:
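HbF induction was read by anti-HbF sandwich ELISA (HRP/TMB, OD450) on lysates and normalized to vehicle-treated cells. Cells were day 7 erythroid progenitors derived from human bone marrow CD34+ cells, seeded at 1,000/well with 3 U/mL rhEPO. Compound was given for 5 days at 37 °C at final concentrations […].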
Background: In an ELISA, binding on a coated surface is turned into a signal by an enzyme label.

The subject of a further experiment is MV-4-11 AML cells. The experiment is described as follows: MV-4-11 cell proliferation assay (CellTiter-Glo, 6 days). As to conditions: Homo sapiens, MV4-11, 144 h; 6 days treatment; binning as pXC50; read-out: MV4-11 Anti-proliferative activity (EC50 category). It is filed as cell-based. As to the method:
MV-4-11 Anti-Proliferative Activity (pEC50 Category)
Cell proliferation assay. Optimal cell seeding density was determined empirically for MV-4-11 AML cells by examining the growth of a wide range of seeding densities in a 384-well format to identify conditions that permitted maximal and continued proliferation for 6 days. MV-4-11 cells were plated in duplicate plates 24 hours before treatment with a 20-point two-fold dilution series of compound or 0.15% DMSO. Plates were incubated for 6 days at 37° C. in 5% CO2. Cells were then lysed with CellTiter-Glo (CTG) (Promega) and chemiluminescent signal was detected with an appropriate microplate reader. In addition, an untreated plate of cells was harvested at the time of compound addition (T0) to quantify the initial cell density. CTG values obtained after 6 days of treatment were expressed as a percent of the T0 value and plotted against compound concentration. Data were fit with a four parameter equation to generate a concentration response curve from which growth IC50 values were calculated.
On the technique in general: Cellular ATP, detected with luciferase, serves as a proxy for viable cell number.

A further experiment has as its target human full length DNMT1 (Homo sapiens (Human), UniProt P26358). The experiment is described as follows: DNMT1 breaklight assay. The class given is biochemical. As to conditions: repeated experimental runs, read-out: average IC50 against DNMT1. As to the method:
DNMT1 breaklight in vitro assays were conducted in a total volume of 50 μl in a standard 384 well format, using black non-binding surface microplates (Corning 3575). Five μl of human full length DNMT1 (produced internally), used at a final concentration of 40 nM, was added to 5 μl of substrate mixture containing final concentrations of 125 nM hemi methylated oligonucleotide (synthesized at ATD Bio; 5′-FAM-[…]5[…]5G5TAGAT-3′ where 5=methyl deoxycitidine) and 2 μM ultrapure SAM (Cisbio #62SAHZLD). Negative control wells used 5 μl of DNMT1 and 5 μl of oligonucleotide but 0 μM SAM. All reagents were made up in 1× assay buffer (20 mM Tris pH 6.8, 25 mM NaCl, 0.5 mM MgCl2, 0.01% Triton X100 and 1 mM DTT). The reaction was incubated at 26° C. for 45 min and then stopped with the addition of 40 μl detection reagent. Detection reagent, made up in 1× Gla assay buffer (20 mM Tris pH 8.0, 80 mM NaCl, 0.75 mM MgCl2, 0.01% Triton X100 and 1 mM DTT) has a final concentration of 100 μM SAH (Sigma #A9384) and 0.0008 units/μl Gla1 restriction endonuclease (Sibenzyme #E494). Following addition of the detection reagent the plate was incubated in the dark at room temperature for 5 hr. Fluorescence intensity was then measured on the PHERAstar FS (BMG Labtech) at Ex 485 nm and Em 520 nm, with a gain of 400 and an integration time of 100 ms.

Each structure is given as a SMILES string. Structures can show the parent of a compound that is named as a salt.

DNMT1, sequence (P26358 whole entry, looked up): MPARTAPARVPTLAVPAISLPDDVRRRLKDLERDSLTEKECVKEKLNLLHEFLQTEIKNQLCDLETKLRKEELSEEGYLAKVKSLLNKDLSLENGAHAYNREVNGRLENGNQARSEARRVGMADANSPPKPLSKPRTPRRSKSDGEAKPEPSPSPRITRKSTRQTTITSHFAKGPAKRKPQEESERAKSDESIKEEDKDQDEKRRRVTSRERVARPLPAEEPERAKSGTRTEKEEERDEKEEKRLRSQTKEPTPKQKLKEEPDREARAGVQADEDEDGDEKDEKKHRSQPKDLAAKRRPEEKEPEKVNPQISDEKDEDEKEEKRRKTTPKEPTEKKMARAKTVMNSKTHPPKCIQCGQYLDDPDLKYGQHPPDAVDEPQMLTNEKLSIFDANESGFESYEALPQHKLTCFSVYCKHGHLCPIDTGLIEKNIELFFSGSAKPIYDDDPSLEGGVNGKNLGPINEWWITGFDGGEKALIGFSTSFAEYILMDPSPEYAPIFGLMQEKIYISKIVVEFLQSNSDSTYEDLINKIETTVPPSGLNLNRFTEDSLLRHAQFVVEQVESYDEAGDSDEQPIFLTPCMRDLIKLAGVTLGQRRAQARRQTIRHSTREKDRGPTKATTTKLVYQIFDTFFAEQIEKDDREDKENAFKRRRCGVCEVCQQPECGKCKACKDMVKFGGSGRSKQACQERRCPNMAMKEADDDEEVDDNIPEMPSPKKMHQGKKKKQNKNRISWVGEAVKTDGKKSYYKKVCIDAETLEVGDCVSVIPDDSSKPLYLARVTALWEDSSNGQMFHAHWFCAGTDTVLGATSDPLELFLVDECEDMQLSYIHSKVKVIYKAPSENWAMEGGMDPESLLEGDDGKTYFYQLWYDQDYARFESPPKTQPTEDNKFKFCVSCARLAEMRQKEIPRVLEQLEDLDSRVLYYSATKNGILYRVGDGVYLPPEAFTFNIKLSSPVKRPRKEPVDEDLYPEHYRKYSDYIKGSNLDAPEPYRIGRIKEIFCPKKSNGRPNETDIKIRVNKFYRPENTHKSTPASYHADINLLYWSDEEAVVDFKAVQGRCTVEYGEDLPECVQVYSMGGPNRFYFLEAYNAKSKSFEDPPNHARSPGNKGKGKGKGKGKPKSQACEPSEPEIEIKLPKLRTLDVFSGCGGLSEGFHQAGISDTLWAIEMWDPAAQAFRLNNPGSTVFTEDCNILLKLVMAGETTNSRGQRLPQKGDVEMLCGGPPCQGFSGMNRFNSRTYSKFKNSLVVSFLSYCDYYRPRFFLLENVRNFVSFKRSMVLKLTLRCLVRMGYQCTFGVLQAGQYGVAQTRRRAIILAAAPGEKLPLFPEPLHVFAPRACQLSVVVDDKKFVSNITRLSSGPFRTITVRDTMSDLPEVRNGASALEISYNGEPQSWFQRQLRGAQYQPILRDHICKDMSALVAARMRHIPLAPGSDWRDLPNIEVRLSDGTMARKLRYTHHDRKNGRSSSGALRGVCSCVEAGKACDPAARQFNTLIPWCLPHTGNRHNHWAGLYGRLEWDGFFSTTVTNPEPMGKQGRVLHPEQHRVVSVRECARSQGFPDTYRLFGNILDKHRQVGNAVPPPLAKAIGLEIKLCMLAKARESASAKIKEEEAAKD
human full length DNMT1, sequence (P26358 whole entry): as the sequence (P26358 whole entry, looked up) above

`CCc1c(C#N)c(SC(C(N)=O)c2ccccc2)nc(N2CCCN(CCO)CC2)c1C#N` (stereo not shown) [Example 318, 2-((3,5-Dicyano-4-ethyl-6-(4-(2-hydroxyethyl)-1,4-diazepan-1-yl)pyridin-2-yl)thio)-2-phenylacetamide]: the “DNMT1 BioChemical (pIC50 category)” value at DNMT1 is on record as “D (Category D: ≥6.5)”. Also, the EC50 in experiment [1] is < 316 nM; in the experiment on MV-4-11 AML cells, 316 to 1000 nM.
For the compound `N#Cc1c(SC(C(N)=O)c2ccncc2)nc(N2CC[C@H](O)C2)c(C#N)c1C1CC1` (stereo partly drawn) [Example 34, 2-((3,5-dicyano-4-cyclopropyl-6-((S)-3-hydroxypyrrolidin-1-yl)pyridin-2-yl)thio)-2-(pyridin-4-yl)acetamide], the IC50 at DNMT1 was 316 to 1000 nM. Also, the EC50 (in experiment [1]; in the experiment on MV-4-11 AML cells) was 1000 to 31600 nM in each case.
As for `N#Cc1c(SC(C(N)=O)c2ccccc2)nc(N2CCCNCC2)c(C#N)c1C1CC1` (stereo not shown) [Example 4, 2-((3,5-dicyano-4-cyclopropyl-6-(1,4-diazepan-1-yl)pyridin-2-yl)thio)-2-phenylacetamide], at DNMT1, the “DNMT1 BioChemical (pIC50 category)” value is listed as “D (Category D: ≥6.5)”. For the same compound, the EC50 in experiment [1] was < 316 nM; in the experiment with MV-4-11 AML cells, 1000 to 31600 nM.
Consider `N#Cc1c(SC(C(N)=O)c2ccccc2)nc(N2CCCC(O)C2)c(C#N)c1C1CC1` (stereo not shown) [Example 164, 2-(3,5-Dicyano-4-cyclopropyl-6-(3-hydroxypiperidin-1-yl)pyridin-2-ylthio)-2-phenylacetamide], for which the IC50 at DNMT1 is 316 to 1000 nM. The EC50 in experiment [1] was 316 to 1000 nM; with MV-4-11 AML cells, 1000 to 31600 nM.
For `CCc1c(C#N)c(SC(C(N)=O)c2ccccc2)nc(N(C)CC(N)=O)c1C#N` (stereo not shown) [Example 145, 2-((6-((2-Amino-2-oxoethyl)(methyl)amino)-3,5-dicyano-4-ethylpyridin-2-yl)thio)-2-phenylacetamide], the “DNMT1 BioChemical (pIC50 category)” value at DNMT1 was “D (Category D: ≥6.5)”. Further, the EC50 (in experiment [1]; in the experiment with MV-4-11 AML cells) was < 316 nM in each case.
As for `CN1CCN(c2nc(SC(C(N)=O)c3ccccc3)c(C#N)c(C3CC3)c2C#N)CC1=O` (stereo not shown) [Example 22], the IC50 on human full length DNMT1 was > 750 nM; on DNMT1 it was 316 to 1000 nM. The EC50 in experiment [1] is < 316 nM.
On to `N#Cc1c(SC(C(N)=O)c2ccncc2)nc(N2CCCNCC2)c(C#N)c1C1CC1` (stereo not shown) [Example 31, 2-((3,5-dicyano-4-cyclopropyl-6-(1,4-diazepan-1-yl)pyridin-2-yl)thio)-2-(pyridin-4-yl)acetamide], for which the IC50 at DNMT1 is 316 to 1000 nM. For the same compound, the results for the EC50 (in experiment [1]; with MV-4-11 AML cells) were > 31600 nM and 1000 to 31600 nM, respectively.
In the case of `N#Cc1c(SC(C(N)=O)c2ccccc2)nc(N2CCCC(N)C2)c(C#N)c1C1CC1` (stereo not shown) [Example 25, 2-((6-(3-aminopiperidin-1-yl)-3,5-dicyano-4-cyclopropylpyridin-2-yl)thio)-2-phenylacetamide], the IC50 at human full length DNMT1 is ≤ 500 nM. Further, on DNMT1, the “DNMT1 BioChemical (pIC50 category)” value is reported as “D (Category D: ≥6.5)”. For the same compound, in experiment [1], the EC50 was < 316 nM.
Turning to `N#Cc1c(SC(C(N)=O)c2ccccc2)nc(N2CCC(N3CCCC3)CC2)c(C#N)c1C1CC1` (stereo not shown) [Example 42, 2-((3,5-Dicyano-4-cyclopropyl-6-(4-(pyrrolidin-1-yl)piperidin-1-yl)pyridin-2-yl)thio)-2-phenylacetamide trifluoroacetate], on DNMT1, the “DNMT1 BioChemical (pIC50 category)” value is recorded as “D (Category D: ≥6.5)”. Further, the results for the EC50 (in experiment [1]; with MV-4-11 AML cells) were < 316 nM and 316 to 1000 nM, respectively.
As for `CCc1c(C#N)c(SC(C(N)=O)c2ccccc2)nc(N2CCN(CCCN)CC2)c1C#N` (stereo not shown) [Example 37, 2-((6-(4-(3-aminopropyl)piperazin-1-yl)-3,5-dicyano-4-ethylpyridin-2-yl)thio)-2-phenylacetamide], the IC50 at human full length DNMT1 is ≤ 500 nM; on DNMT1, 316 to 1000 nM. The EC50 in experiment [1] was 1000 to 31600 nM.
Consider `CCc1c(C#N)c(N[C@@H](C(N)=O)c2ccccc2)nc(N2CCCN(CCO)CC2)c1C#N` [Example 114, (2R)-2-({3,5-Dicyano-4-ethyl-6-[4-(2-hydroxyethyl)-1,4-diazepan-1-yl]pyridin-2-yl}amino)-2-phenylacetamide], for which the IC50 at DNMT1 is 316 to 1000 nM. The EC50 (in experiment [1]; in the experiment with MV-4-11 AML cells) was 1000 to 31600 nM throughout.
Consider `CCc1c(C#N)c(SC(C(N)=O)c2ccccc2)nc(N2CCC3(CNC3)C2)c1C#N` (stereo not shown) [Example 44, 2-((3,5-Dicyano-4-ethyl-6-(2,6-diazaspiro[3.4]octan-6-yl)pyridin-2-yl)thio)-2-phenylacetamide], for which the “DNMT1 BioChemical (pIC50 category)” value on DNMT1 is on record as “D (Category D: ≥6.5)”. Further, the EC50 (in experiment [1]; in the experiment with MV-4-11 AML cells) was 1000 to 31600 nM throughout.
For the compound `CCc1c(C#N)c(SC(C(N)=O)c2ccccc2)nc(N2CCC2)c1C#N` (stereo not shown) [Example 58, 2-[[6-(azetidin-1-yl)-3,5-dicyano-4-ethyl-2-pyridyl]sulfanyl]-2-phenyl-acetamide], the IC50 at human full length DNMT1 was > 750 nM. For the same compound, the “DNMT1 BioChemical (pIC50 category)” value at DNMT1 is recorded as “D (Category D: ≥6.5)”. Further, the EC50 in experiment [1] was 1000 to 31600 nM.
With `CCc1c(C#N)c(SC(C(N)=O)c2ccccc2)nc(N2CCC3(CCO3)C2)c1C#N` (stereo not shown) [Example 36, 2-((3,5-Dicyano-4-ethyl-6-(1-oxa-6-azaspiro[3.4]octan-6-yl)pyridin-2-yl)thio)-2-phenylacetamide], at human full length DNMT1, the IC50 was > 750 nM. Besides, the “DNMT1 BioChemical (pIC50 category)” value on DNMT1 is recorded as “D (Category D: ≥6.5)”. Further, the EC50 in experiment [1] is 1000 to 31600 nM.
For `CCCN1CCN(c2nc(SC(C(N)=O)c3ccccc3)c(C#N)c(CC)c2C#N)CC1` (stereo not shown) [Example 12, 2-{[3,5-dicyano-4-ethyl-6-(4-propylpiperazin-1-yl)pyridin-2-yl]sulfanyl}-2-phenylacetamide], the values for the IC50 at human full length DNMT1 and at DNMT1 were ≤ 500 nM and 316 to 1000 nM, respectively. Moreover, the EC50 in experiment [1] was 316 to 1000 nM.
For `CCc1c(C#N)c(SC(C(N)=O)c2ccccc2)nc(N2CCC(C3CCNCC3)CC2)c1C#N` (stereo not shown) [Example 122, 2-((6-([4,4′-Bipiperidin]-1-yl)-3,5-dicyano-4-ethylpyridin-2-yl)thio)-2-phenylacetamide; 2,2,2-trifluoroacetic acid], the “DNMT1 BioChemical (pIC50 category)” value on DNMT1 was “D (Category D: ≥6.5)”. For the same compound, the “average pIC50 against DNMT1” value at DNMT1 (breaklight assay and/or SPA assay, repeated experimental runs) is recorded as > 6.5. Also, the EC50 was < 316 nM in experiment [1] and 316 to 1000 nM in the experiment with MV-4-11 AML cells.
Regarding `CCc1c(C#N)c(SC(C(N)=O)c2ccccc2)nc(N2CCC3(CC2)CNC3)c1C#N` (stereo not shown) [Example 43, 2-((3,5-Dicyano-4-ethyl-6-(2,7-diazaspiro[3.5]nonan-7-yl)pyridin-2-yl)thio)-2-phenylacetamide], the IC50 at human full length DNMT1 is ≤ 500 nM. Besides, the “DNMT1 BioChemical (pIC50 category)” value at DNMT1 is listed as “D (Category D: ≥6.5)”. In addition, the EC50 in experiment [1] was 316 to 1000 nM.
`CCc1c(C#N)c(SC(C(N)=O)c2ccccc2)nc(N2CCN(CCN)CC2)c1C#N` (stereo not shown) [Example 123, 2-((6-(4-(2-Aminoethyl)piperazin-1-yl)-3,5-dicyano-4-ethylpyridin-2-yl)thio)-2-phenylacetamide]: on DNMT1, the “DNMT1 BioChemical (pIC50 category)” value is “D (Category D: ≥6.5)”. The EC50 was < 316 nM in experiment [1] and 1000 to 31600 nM with MV-4-11 AML cells.
Consider `CCN1CCCN(c2nc(SC(C(N)=O)c3ccccc3)c(C#N)c(C3CC3)c2C#N)CC1` (stereo not shown) [Example 5, 2-{[3,5-dicyano-4-cyclopropyl-6-(4-ethyl-1,4-diazepan-1-yl)pyridin-2-yl]sulfanyl}-2-phenylacetamide], for which the IC50 at human full length DNMT1 was ≤ 500 nM. Further, at DNMT1, the “DNMT1 BioChemical (pIC50 category)” value is recorded as “D (Category D: ≥6.5)”. In addition, the EC50 in experiment [1] was < 316 nM.
Take `CCc1c(C#N)c(SC(C(N)=O)c2ccccc2)nc(N(C)CCN2CCOCC2)c1C#N` (stereo not shown) [Example 11, 2-[(3,5-dicyano-4-ethyl-6-{methyl[2-(morpholin-4-yl)ethyl]amino}pyridin-2-yl)sulfanyl]-2-phenylacetamide]: the results for the IC50 at human full length DNMT1 and at DNMT1 were 580 nM and 316 to 1000 nM, respectively. In experiment [1], the EC50 was 316 to 1000 nM.
